From patent publication US20230390274A1 (EPIRIUM BIO INC., priority 2020, published 2023) come the findings set out here.

The target in the first test is 15-PGDH/HPGD (Homo sapiens (Human), UniProt P15428). Kind of test: hPGDH inhibitor screening biochemical assay. Conditions: 10 nM 15-PGDH/HPGD, 15 μM PGE2, 0.25 mM NAD; read-out: hPGDH: Average IC50. On the procedure: A hydroxyprostaglandin dehydrogenase inhibition screening biochemical assay can be performed to assess the synthesized inhibitors provided herein. Provided herein is an exemplary biochemical assay for hPGDH inhibitor screening.
Chain of 15-PGDH/HPGD (P15428 whole entry): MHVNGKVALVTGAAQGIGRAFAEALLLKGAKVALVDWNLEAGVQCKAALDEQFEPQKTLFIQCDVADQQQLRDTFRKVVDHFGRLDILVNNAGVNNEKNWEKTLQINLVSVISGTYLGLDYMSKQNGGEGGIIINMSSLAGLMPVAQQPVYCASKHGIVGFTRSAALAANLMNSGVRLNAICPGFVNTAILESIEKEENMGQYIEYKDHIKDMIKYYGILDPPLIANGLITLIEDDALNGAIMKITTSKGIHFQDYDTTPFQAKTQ
The in vitro biochemical assay can be performed in white, 384 plates in total 20 μl reaction volume consisting of 10 nM of 15-PGDH/HPGD (R&D System #5660-DH), 15 μM Prostaglandin E2 (Sigma, Cat #P5640-10MG) and 0.25 mM β-Nicotinamide adenine dinucleotide sodium salt (Sigma, Cat #N0632-5G) made in reaction buffer (50 mM Tris-HCl, pH 7.5, 0.01% Tween 20) at 10-point dose response curve for test/tool compounds. Briefly, 5 μl (4×) of compounds solution and 5 μl (final concentration, 10 nM) of enzyme solution is added to white 384 well plates and incubated for 10 mins at 37° C. 5 μl (4×) of Prostaglandin E2 and 5 μl (4×) of β-Nicotinamide adenine dinucleotide sodium salt is added to the wells and incubated for 10 mins at rt. Fluorescence is recorded at ex/em=340 nm/485 nm. The percentage (%) inhibition of enzyme activity was determined relative to […] (1% DMSO) and IC50 was calculated using GraphPad prism software (four parameter-variable slope equation).
As to `COc1ccc(-n2cnc3cc(C(=O)N4CCCCC4)cnc32)cc1` [A-63], the IC50 was < 100 nM. Regarding `O=C(c1cnc2c(-c3cccc(Cl)c3)cnn2c1)N1CCCCC1` [A-96, (3-(3-chlorophenyl)pyrazolo[1,5-a]pyrimidin-6-yl)(piperidin-1-yl)methanone], the IC50 was < 100 nM. On the same count and under the same terms, to `COc1ccc(-n2cnc3cc(C(=O)N4CCCCC4)ccc32)cc1` [A-32] belongs < 100 nM. Still for that read-out and setting: to `O=C(c1cnc2c(ccn2-c2ccc(-c3ncn[nH]3)nc2)c1)N1CCC(F)(F)CC1` [A-253] belongs < 100 nM; to `O=C(c1ccc2c(c1)ncn2-c1cccc(Cl)c1)N1CC(Cl)C1` [A-21], < 100 nM; to `O=C(c1ccc2c(cnn2-c2cncc(Cl)c2)c1)N1CCCCC1` [A-325], < 100 nM.

In the case of `O=C(O)c1cccc(-n2ccc3cc(C(=O)N4CCC(F)(F)CC4)cnc32)c1` [A-287, 3-(5-(4,4-difluoropiperidine-1-carbonyl)-1H-pyrrolo[2,3-b]pyridin-1-yl)benzoic acid], the IC50 is < 100 nM. The same measure, in the same setting: to `O=C(c1cnc2c(ccn2-c2ccc(CO)cc2)c1)N1CCC(F)CC1` [A-127] belongs < 100 nM; to `Cc1nc2cc(C(=O)N3CCCCC3)ccc2n1-c1cccc(Cl)c1` [A-28], < 100 nM; to `Cc1nc2c(ccn2-c2cnccn2)cc1C(=O)N1CCC(F)CC1` [A-174], ≥ 1000 nM.

Take `COc1ccc(-n2cnc3cc(C(=O)N4CCC(F)CC4)cnc32)cc1` [A-64]: the half-maximal inhibitory concentration (IC50) was < 100 nM. Still for that read-out and setting: next, `O=C(c1ccc(COc2ccccc2Cl)cc1)N1CCCCC1` [A-70]: < 100 nM; `COCCNC(=O)c1ccc(-n2ccc3cc(C(=O)N4CCCCC4)cnc32)cc1` [A-139]: < 100 nM.

For `O=C(c1cnc2c(ccn2-c2cscn2)c1)N1CCCCC1` [A-47], the IC50 was < 100 nM. As for `NC(=O)c1ncc(-n2ccc3cc(C(=O)N4CCCCC4)cnc32)cn1` [A-125], the IC50 is < 100 nM. On the same count and under the same terms, to `N/C(=N\O)c1ccc(-n2ccc3cc(C(=O)N4CCCCC4)cnc32)cc1` [A-212] belongs < 100 nM; to `COc1cncc(-n2ccc3cc(C(=O)N4CCCCC4)cnc32)c1` [A-145], < 100 nM; to `COc1cccc(-n2cc(Cl)c3cc(C(=O)N4CCCCC4)cnc32)c1` [A-169], < 100 nM. The same measure, in the same setting: next, `Cc1nc2c(cc1C(=O)N1CCC(F)CC1)c(Cl)cn2-c1cnccn1` [A-175]: ≥ 1000 nM. The same measure, in the same setting: to `CC(C)(CC(=O)O)NC(=O)c1ccc(-n2ccc3cc(C(=O)N4CCC(F)(F)CC4)cnc32)cc1` [A-235] belongs < 100 nM. Regarding `O=C(c1ccc(CSc2ccccc2Cl)cc1)N1CCCCC1` [A-72], the IC50 is < 100 nM. Same read-out and setting: to `O=C(c1cnc2c(ccn2-c2ccc(-c3nnn[nH]3)nc2)c1)N1CCC(F)(F)CC1` [A-250, (1-(6-(1H-tetrazol-5-yl)pyridin-3-yl)-1H-pyrrolo[2,3-b]pyridin-5-yl)(4,4-difluoropiperidin-1-yl)methanone] belongs < 100 nM; to `CS(=O)(=O)c1ccc(-n2ccc3cc(C(=O)N4CCCCC4)cnc32)cc1` [A-153], < 100 nM. Same read-out and setting: to `CCC(CC)n1cnc2cc(C(=O)N3CCCCC3)ccc21` [A-311] belongs < 100 nM; to `N/C(=N\O)c1cccc(-n2ccc3cc(C(=O)N4CCCCC4)cnc32)c1` [A-213], < 100 nM. With `O=C(c1cnc2c(ccn2-c2ccc(-c3n[nH]c(C4CC4)n3)nc2)c1)N1CCC(F)(F)CC1` [A-333, (1-(6-(5-cyclopropyl-1H-1,2,4-triazol-3-yl)pyridin-3-yl)-1H-pyrrolo[2,3-b]pyridin-5-yl)(4,4-difluoropiperidin-1-yl)methanone], the IC50 was < 100 nM. Still for that read-out and setting: next, `Cn1cc(-n2ccc3cc(C(=O)N4CCCCC4)cnc32)cn1` [A-49]: < 100 nM; `Nc1ccc(-n2ccc3cc(C(=O)N4CCCCC4)cnc32)cn1` [A-158]: < 100 nM. Still for that read-out and setting: next, `NC(=O)c1ccc(-n2cc(Cl)c3cc(C(=O)N4CCCCC4)cnc32)cc1` [A-204, 4-(3-chloro-5-(piperidine-1-carbonyl)-1H-pyrrolo[2,3-b]pyridin-1-yl)benzamide]: < 100 nM; `O=C(c1cnc2c(c1)ncn2-c1ccc(F)c(F)c1)N1CCCCC1` [A-180]: < 100 nM. Still for that read-out and setting: to `O=C(Nc1ccccc1)c1ccc2c(c1)ncn2-c1cccc(Cl)c1` [A-16] belongs ≥ 1000 nM; to `CC(C)(C)c1ccc(NC(=O)c2cncc(-n3ccc4cc(C(=O)N5CCC(F)(F)CC5)cnc43)c2)cn1` [A-335, N-(6-(tert-butyl)pyridin-3-yl)-5-(5-(4,4-difluoropiperidine-1-carbonyl)-1H-pyrrolo[2,3-b]pyridin-1-yl)nicotinamide], < 100 nM; to `CS(=O)(=O)NCCNC(=O)c1ccc(-n2ccc3cc(C(=O)N4CCC(F)(F)CC4)cnc32)cc1` [A-220, 4-(5-(4,4-difluoropiperidine-1-carbonyl)-1H-pyrrolo[2,3-b]pyridin-1-yl)-N-(2-(methylsulfonamido)ethyl)benzamide], < 100 nM.

As for `Cc1c(C(=O)N2CCC(F)CC2)cnc2c1ccn2-c1ccc(C#N)cc1` [A-206, 4-(5-(4-fluoropiperidine-1-carbonyl)-4-methyl-1H-pyrrolo[2,3-b]pyridin-1-yl)benzonitrile], the IC50 is < 100 nM. The same measure, in the same setting: to `O=C(c1cnc2c(ccn2-c2cn[nH]c2)c1)N1CCCCC1` [A-48] belongs < 100 nM; to `COc1ccc(-n2ccc3cc(C(=O)N4CCCCC4)cnc32)cn1` [A-157], < 100 nM; to `Cn1cc(-n2ccc3cc(C(=O)N4CCC(F)CC4)cnc32)cn1` [A-58], < 100 nM. As to `NCc1ccc(-n2ccc3cc(C(=O)N4CCCCC4)cnc32)cc1` [A-162], the IC50 is < 100 nM. On the same count and under the same terms, to `O=C(c1ccc2c(c1)ncn2-c1cccc(Cl)c1)N1CC2CCC(C2)C1` [A-4] belongs < 100 nM; to `O=C(O)[C@@H]1CCCN1C(=O)c1ccc(-n2ccc3cc(C(=O)N4CCC(F)(F)CC4)cnc32)cc1` [A-236], < 100 nM; to `O=C(c1cnc2c(ccn2-c2cccnc2)c1)N1CCC(F)CC1` [A-56], < 100 nM. Still for that read-out and setting: to `O=C(Nc1cc(C2CC2)[nH]n1)c1cccc(-n2ccc3cc(C(=O)N4CCC(F)(F)CC4)cnc32)c1` [A-282, N-(5-cyclopropyl-1H-pyrazol-3-yl)-3-(5-(4,4-difluoropiperidine-1-carbonyl)-1H-pyrrolo[2,3-b]pyridin-1-yl)benzamide] belongs < 100 nM; to `CN(C)c1ccc(-n2ccc3cc(C(=O)N4CCC(F)CC4)cnc32)cc1` [A-327], < 100 nM. The same measure, in the same setting: to `CN(C)c1ccc(-n2ccc3cc(C(=O)N4CCCCC4)cnc32)cc1` [A-150] belongs < 100 nM; to `Nc1cc(-n2ccc3cc(C(=O)N4CCCCC4)cnc32)ccn1` [A-154], < 100 nM; to `O=C(c1ccc2c(c1)ncn2-c1cccc(Cl)c1)N1CC(F)C1` [A-20], < 100 nM. For `CCOC(=O)Cc1nc2cc(C(=O)N3CCCCC3)ccc2n1-c1cccc(Cl)c1` [A-27], the IC50 is < 100 nM. On to `CC(C)(O)CCc1cc2cc(C(=O)N3CCC(F)(F)CC3)cnc2n1-c1ccc(C(=O)O)cc1` [A-336, 4-(5-(4,4-difluoropiperidine-1-carbonyl)-2-(3-hydroxy-3-methylbutyl)-1H-pyrrolo[2,3-b]pyridin-1-yl)benzoic acid], for which the IC50 was < 100 nM. Still for that read-out and setting: next, `COc1ccc(-n2ccc3cc(C(=O)N4CCN(CC(F)(F)F)CC4)cnc32)cc1` [A-136]: ≥ 1000 nM; `CN(C)C(=O)c1cncc(-n2ccc3cc(C(=O)N4CCCCC4)cnc32)c1` [A-350]: < 100 nM; `N#Cc1ccc(-n2cnc3cc(C(=O)N4CCC(F)(F)CC4)cnc32)cc1` [A-193]: < 100 nM.

With `Cc1cncc(-n2ccc3cc(C(=O)N4CCCCC4)cnc32)c1` [A-113], the IC50 is < 100 nM.

Staying with this test, now noted: Table 1, PGDH inhibitors with a 6-5 ring core; read-out: hPGDH: IC50.
Regarding `COc1ccc(-n2cnc3cc(C(=O)N4CCCCC4)cnc32)cc1` [drawing 80], the half-inhibitory concentration (IC50) is 20.1 nM. Same read-out and setting: to `COc1ccc(-n2cnc3cc(C(=O)N4CCC(F)CC4)ccc32)cc1` [drawing 109] belongs 43.7 nM; to `O=C1CCN(C(=O)c2ccc3c(c2)ncn3-c2cccc(Cl)c2)C1` [drawing 88], 4540 nM; to `O=C(c1ccc2c(cnn2-c2cccc(Cl)c2)c1)N1CCCCC1` [drawing 111], 5.8 nM. Same read-out and setting: to `O=C(c1ccc2c(c1)ncn2-c1cccc(Cl)c1)N1CCC(O)C1` (stereo not shown) [drawing 84] belongs 2870 nM.

Regarding `COc1ccc(-n2cnc3cc(C(=O)N4CCC(F)CC4)cnc32)cc1` [drawing 79], the concentration for half-maximal inhibition (IC50) was found to be 19.5 nM. On the same count and under the same terms, next, `O=C(c1ccc2c(c1)nnn2-c1cccc(Cl)c1)N1CCCCC1` [drawing 108]: 3.1 nM. Still for that read-out and setting: next, `O=C(c1ccc2c(ccn2-c2cccc(Cl)c2)c1)N1CCCCC1` [drawing 112]: 0.5 nM.

The same test, now with this note: Table 2, PGDH inhibitors with a phenyl core; read-out: hPGDH: IC50.
With `COc1cc(C(=O)N2CCCCC2)ccc1COc1ccccc1Cl` [drawing 115], the IC50 is 8.5 nM. Same read-out and setting: to `COc1ccccc1C(=O)N(C)c1ccc(C(=O)N2CCCCC2)cc1` [drawing 116] belongs 2280 nM. For the molecule `O=C(c1ccc(COc2ccccc2Cl)cc1)N1CCCCC1` [drawing 117], the IC50 is 18.6 nM.

`O=C(c1ccc(COc2ccccc2Br)cc1)N1CCCCC1` [drawing 120]: the 50% inhibitory concentration (IC50) came to 3.1 nM.

In general, IC50 refers to the concentration needed to halve the response being measured.
